Patent US20110053953A1, “AZA-Isoindolones and Their Use as Metabotropic Glutamate Receptor Potentiators - 613” (priority 2007, published 2011)

Molecular target: T1, human mGluR2 (Homo sapiens, UniProt Q14416)
T1 construct: If the GTPgammaS assay was used: nothing is fused
Experiment: mGluR2 potentiator functional assays (FLIPR calcium mobilization or [35S]-GTPγS binding; not stated which)
Type: cell-based
Settings: active in assays described herein; allosteric activator (potentiator) activity at mGluR2, assay not specified
Excerpt: The pharmacological properties of the compounds of the invention can be analyzed using standard assays for functional activity. Examples of glutamate receptor assays are well known in the art as described in, for example, Aramori et al., 1992, Neuron, 8:757; Tanabe et al., 1992, Neuron, 8:169; Miller et al., 1995, J. Neuroscience, 15:6103; Balazs, et al., 1997, J. Neurochemistry, 1997, 69:151. The methodology described in these publications is incorporated herein by reference. Conveniently, the compounds of the invention can be studied by means of an assay that measures the mobilization of intracellular calcium, [Ca^2+]i in cells expressing mGluR2.
Fluorometric Imaging Plate Reader (FLIPR) analysis was used to detect allosteric activators of mGluR2 via calcium mobilization. A clonal HEK 293 cell line expressing a chimeric mGluR2/CaR construct comprising the extracellular and transmembrane domains of human mGluR2 and the intracellular domain of the human calcium receptor, fused to the promiscuous chimeric protein G[…]qi5 was used. […]
FLIPR experiments were done using a laser setting of 0.8 W and a 0.4 second CCD camera shutter speed. […] An addition of test compound (0.01 μM to 30 μM in duplicate) was made after 10 seconds of baseline fluorescent readings were recorded on FLIPR. Fluorescent signals were then recorded for an additional 75 seconds at which point a second addition of DCG-IV (0.2 μM) was made and fluorescent signals were recorded for an additional 65 seconds. Fluorescent signals were measured as the peak height of the response within the sample period. Data was analyzed using Assay Explorer, and EC50 and Emax values (relative to maximum DCG-IV effect) were calculated using a four parameter logistic equation.
A [^35S]-GTPγS binding assay was used to functionally assay mGluR2 receptor activation. The allosteric activator activity of compounds at the human mGluR2 receptor were measured using a [^35S]-GTPγS binding assay with membranes prepared from CHO cells which stably express the human mGluR2. […]

T1 sequence (Q14416 19-819 limits assumed): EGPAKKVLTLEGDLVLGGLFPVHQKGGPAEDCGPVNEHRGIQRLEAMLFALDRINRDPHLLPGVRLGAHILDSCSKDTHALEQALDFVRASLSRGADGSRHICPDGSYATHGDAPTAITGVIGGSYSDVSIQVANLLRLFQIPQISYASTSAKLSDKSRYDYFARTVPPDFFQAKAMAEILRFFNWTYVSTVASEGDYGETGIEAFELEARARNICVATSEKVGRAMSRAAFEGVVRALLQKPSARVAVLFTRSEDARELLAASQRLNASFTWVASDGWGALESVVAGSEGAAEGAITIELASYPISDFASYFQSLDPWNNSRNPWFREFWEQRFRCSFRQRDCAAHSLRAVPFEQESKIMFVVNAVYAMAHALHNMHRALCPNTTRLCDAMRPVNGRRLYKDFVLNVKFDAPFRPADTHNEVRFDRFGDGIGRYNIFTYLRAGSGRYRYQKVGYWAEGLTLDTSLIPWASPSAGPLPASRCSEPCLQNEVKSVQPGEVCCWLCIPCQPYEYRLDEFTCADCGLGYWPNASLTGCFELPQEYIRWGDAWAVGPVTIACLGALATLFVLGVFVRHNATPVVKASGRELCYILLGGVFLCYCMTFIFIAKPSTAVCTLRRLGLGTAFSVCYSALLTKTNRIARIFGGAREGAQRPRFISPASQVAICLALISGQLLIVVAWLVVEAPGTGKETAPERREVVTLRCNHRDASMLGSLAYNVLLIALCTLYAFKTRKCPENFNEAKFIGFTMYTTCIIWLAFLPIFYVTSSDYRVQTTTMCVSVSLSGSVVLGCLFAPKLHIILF

Row | EC50 [nM] | Compound
1 | 1330 | Cc1nc(-c2cccc(NS(C)(=O)=O)c2)cc2c1C(=O)N(Cc1ccc(OC(F)(F)F)cc1)C2 [Compound 13, 6-(3-methylsulphanomidephenyl)-4-methyl-2-[4-(trifluoromethoxy)benzyl]-1,2-dihydro-3H-pyrrolo[3,4-c]pyridin-3-one]
2 | 160 | Cc1nc(-c2cccc(N(S(C)(=O)=O)S(C)(=O)=O)c2)cc2c1C(=O)N(Cc1ccc(OC(F)(F)F)cc1)C2 [Compound 9, 6-(3-dimethylsulphanomidephenyl)-4-methyl-2-[4-(trifluoromethoxy)benzyl]-1,2-dihydro-3H-pyrrolo[3,4-c]pyridin-3-one]
3 | 670 | Cc1nc(-c2cccc(NC=O)c2)cc2c1C(=O)N(CC1CC1)C2 [Compound 20, {3-[2-(cyclopropylmethyl)-4-methyl-3-oxo-2,3-dihydro-1H-pyrrolo[3,4-c]pyridin-6-yl]phenyl}formamide]
